Results published in PubChem BioAssay (NCI).
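96-well plates; 48 h exposure; 5 concentrations. Endpoints by linear interpolation between flanking doses. Not reached: highest tested concentration assigned. At the TGI there is no net growth.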

Key:
Assay in all cases: NCI-60 cell line screen, 48 h
SF-268 CNS = system: SF-268 CNS
SK-MEL-28 melanoma = system: SK-MEL-28 melanoma
PC-3 prostate = system: PC-3 prostate
NCI-H23 lung = system: NCI-H23 lung
KM12 colon = system: KM12 colon
MOLT-4 leukemia = system: MOLT-4 leukemia
OVCAR-4 ovarian = system: OVCAR-4 ovarian
SK-MEL-2 melanoma = system: SK-MEL-2 melanoma
COLO 205 colon = system: COLO 205 colon
OVCAR-8 ovarian = system: OVCAR-8 ovarian
MDA-MB-231 breast = system: MDA-MB-231 breast
NCI/ADR-RES ovarian = system: NCI/ADR-RES ovarian
LOX IMVI melanoma = system: LOX IMVI melanoma
RXF 393 renal = system: RXF 393 renal
HT29 colon = system: HT29 colon
HOP-62 NSCLC = system: HOP-62 NSCLC
NCI-H522 lung = system: NCI-H522 lung
A498 renal = system: A498 renal
TK-10 renal = system: TK-10 renal
MDA-N = system: MDA-N
CCRF-CEM leukemia = system: CCRF-CEM leukemia
OVCAR-5 ovarian = system: OVCAR-5 ovarian
SW-620 colon = system: SW-620 colon
MCF7 breast = system: MCF7 breast
SF-295 CNS = system: SF-295 CNS
SK-OV-3 ovarian = system: SK-OV-3 ovarian
SK-MEL-5 melanoma = system: SK-MEL-5 melanoma
NCI-H460 lung = system: NCI-H460 lung
U251 CNS = system: U251 CNS
A549 NSCLC = system: A549 NSCLC
OVCAR-3 ovarian = system: OVCAR-3 ovarian
SN12C renal = system: SN12C renal
K-562 leukemia = system: K-562 leukemia
SF-539 CNS = system: SF-539 CNS
SR leukemia = system: SR leukemia
SNB-75 CNS = system: SNB-75 CNS
EKVX NSCLC = system: EKVX NSCLC
M14 melanoma = system: M14 melanoma
HL-60(TB) leukemia = system: HL-60(TB) leukemia
786-0 renal = system: 786-0 renal
DU-145 prostate = system: DU-145 prostate
SNB-19 CNS = system: SNB-19 CNS
IGROV1 ovarian = system: IGROV1 ovarian
RPMI-8226 leukemia = system: RPMI-8226 leukemia
MALME-3M melanoma = system: MALME-3M melanoma
HS 578T breast = system: HS 578T breast
UACC-257 melanoma = system: UACC-257 melanoma
HOP-92 NSCLC = system: HOP-92 NSCLC
NCI-H226 lung = system: NCI-H226 lung
UACC-62 melanoma = system: UACC-62 melanoma
ACHN renal = system: ACHN renal
HCT-116 colon = system: HCT-116 colon
CAKI-1 renal = system: CAKI-1 renal
HCT-15 colon = system: HCT-15 colon
MDA-MB-435 = system: MDA-MB-435

SMILES: CCN(CC)C(=S)N=Nc1c(O)[nH]c2ccccc12
- TGI (SF-268 CNS): > 100 µM
- TGI (SK-MEL-28 melanoma): > 100 µM
- TGI (PC-3 prostate): 13.9 µM
- TGI (NCI-H23 lung): 14.6 µM
- TGI (KM12 colon): 10.5 µM
- TGI (MOLT-4 leukemia): 2.93 µM
- TGI (OVCAR-4 ovarian): 11.9 µM
- TGI (SK-MEL-2 melanoma): 23.8 µM
- TGI (COLO 205 colon): 11.6 µM
- TGI (OVCAR-8 ovarian): 13 µM
- TGI (MDA-MB-231 breast): 8.02 µM
- TGI (NCI/ADR-RES ovarian): 0.759 µM
- TGI (LOX IMVI melanoma): 13.4 µM
- TGI (RXF 393 renal): 7.15 µM
- TGI (HT29 colon): 14.8 µM
- TGI (HOP-62 NSCLC): 12.6 µM
- TGI (NCI-H522 lung): 14.4 µM
- TGI (A498 renal): 3.64 µM
- TGI (TK-10 renal): 5.07 µM
- TGI (MDA-N): 16.5 µM
- TGI (CCRF-CEM leukemia): 5.75 µM
- TGI (OVCAR-5 ovarian): 25.1 µM
- TGI (SW-620 colon): 19.7 µM
- TGI (MCF7 breast): 2.37 µM
- TGI (SF-295 CNS): 11.5 µM
- TGI (SK-OV-3 ovarian): 12.6 µM
- TGI (SK-MEL-5 melanoma): 2.41 µM
- TGI (NCI-H460 lung): 3.08 µM
- TGI (U251 CNS): 13 µM
- TGI (A549 NSCLC): 11.9 µM
- TGI (OVCAR-3 ovarian): 2.12 µM
- TGI (SN12C renal): 14.2 µM
- TGI (K-562 leukemia): 5.31 µM
- TGI (SF-539 CNS): 2.4 µM
- TGI (SR leukemia): 4.91 µM
- TGI (SNB-75 CNS): 11.2 µM
- TGI (EKVX NSCLC): 11.5 µM
- TGI (M14 melanoma): 2.94 µM
- TGI (HL-60(TB) leukemia): 3.7 µM
- TGI (786-0 renal): 11.4 µM
- TGI (DU-145 prostate): > 100 µM
- TGI (SNB-19 CNS): 16 µM
- TGI (IGROV1 ovarian): 2.42 µM
- TGI (RPMI-8226 leukemia): 4.07 µM
- TGI (MALME-3M melanoma): 10.4 µM
- TGI (HS 578T breast): 69.5 µM
- TGI (UACC-257 melanoma): 12.3 µM
- TGI (HOP-92 NSCLC): 8.52 µM
- TGI (NCI-H226 lung): 8.2 µM
- TGI (UACC-62 melanoma): 6.38 µM
- TGI (ACHN renal): 10.1 µM
- TGI (HCT-116 colon): 2.84 µM
- TGI (CAKI-1 renal): 5.98 µM
- TGI (HCT-15 colon): 19.6 µM
- TGI (MDA-MB-435): 18.8 µM
